Reference: ChEMBL document CHEMBL1649394, “Cytotoxic and protective DNA damage of three new diterpenoids from the brown alga Dictoyota dichotoma” (Eur J Med Chem, 2011)
Converted amounts (≈) assume the structure as drawn. The source made the active and inactive calls. No cut-off for these calls is given here.

How the values were obtained:
[1] = tested on: Calf thymus DNA; test: Protective activity against bleomycin-iron complex-induced calf thymus DNA damage assessed as chromogen formation at 0.1 mg/ml after 1 hr; assay type: nucleic-acid assay; conditions: Bos taurus
[2] = tested on: HepG2; test: Cytotoxicity against human HepG2 cells assessed as loss of cell monolayers after 96 hrs; assay type: functional, cell-based; conditions: HepG2, 96 h
[3] = Cytotoxicity against human WI38 cells assessed as loss of cell monolayers after 96 hrs; assay type: cell-based; conditions: WI-38, 96 h
[4] = tested on: Vero; test: Cytotoxicity against african green monkey Vero cells assessed as loss of cell monolayers after 96 hrs; assay type: cell-based; conditions: Chlorocebus sabaeus
[5] = tested on: MCF7; test: Cytotoxicity against human MCF7 cells assessed as loss of cell monolayers after 96 hrs; assay type: functional, cell-based; conditions: MCF7, 96 h
[6] = Cytotoxicity against mouse EAC assessed as dead cells at 1 mg/ml after 2 hrs using trypan blue staining by hemocytometer analysis; assay type: functional, Ehrlich
[7] = tested on: Brain; test: Antioxidant activity in rat brain/kidney homogenates assessed as inhibition of lipid peroxidation at 2 mM by […] method; assay type: functional, tissue-based
[8] = Toxicity in rat erythrocytes assessed as hemolysis at 2 mM; assay type: cell-based, Erythrocyte; conditions: read-out: Activity
[9] = Cytotoxicity against human WI38 cells assessed as cell viability at 10 ug/ml after 96 hrs relative to control; assay type: cell-based, WI-38; conditions: read-out: Activity
[10] = Cytotoxicity against human WI38 cells assessed as cell viability at 100 ug/ml after 96 hrs relative to control; assay type: cell-based, WI-38; conditions: read-out: Activity
[11] = Cytotoxicity against human WI38 cells assessed as cell viability at 50 ug/ml after 96 hrs relative to control; assay type: cell-based, WI-38; conditions: read-out: Activity
[12] = Cytotoxicity against mouse EAC assessed as dead cells at 25 ug/ml after 2 hrs using trypan blue staining by hemocytometer analysis; assay type: functional, Ehrlich

| Compound | Activity [1] | IC50 [2] | IC50 [3] | IC50 [4] | IC50 [5] | Activity [6] | inhibition [7] | hemolysis at 2000 µM [8] | viability at 96 h, 10 ug/ml [9] | viability at 96 h, 100 ug/ml [10] | viability at 96 h, 50 ug/ml [11] | Activity [12] |
| --- | --- | --- | --- | --- | --- | --- | --- | --- | --- | --- | --- | --- |
| C=C1C[C@@H](O)[C@@H]([C@H](C)CCC=C(C)C)[C@@H](O)[C@@H]2C(C)=CC[C@@H]12 | Active | 81.2 µg/mL (≈ 267 µM) | 62.6 µg/mL (≈ 206 µM) | 72.3 µg/mL (≈ 237 µM) | 68.2 µg/mL (≈ 224 µM) | 60.9% | 61.6% | 1.1% |  |  |  |  |
| C=C1CC[C@H](OC(C)=O)[C@]2(C)CCC3=C(C(C)C)CC[C@@]3(C)C[C@@]12O [AMIJIOL ACETATE] | Active | 25.1 µg/mL | 14.2 µg/mL | 20.5 µg/mL | 21.2 µg/mL | 85.9% | 83.3% | 0.7% | 65% | 0% | 12% |  |
| C=C1CC[C@H](O)[C@]2(C)C[C@H](OC(C)=O)C3=C(C(C)C)[C@H](OC(C)=O)C[C@@]3(C)C[C@@]12O [AMIJIOL-7,10-DIACETATE] | Active | 47 µg/mL (≈ 112 µM) | 16.2 µg/mL (≈ 38.5 µM) | 21.4 µg/mL (≈ 50.9 µM) | 30.5 µg/mL (≈ 72.5 µM) | 71.2% | 80.2% | 1.4% |  |  |  |  |
| C=C1CC[C@H](O)[C@]2(C)CCC3=C(C(C)C)CC[C@@]3(C)C[C@@]12O [AMIJIOL] | Active | 70.2 µg/mL (≈ 231 µM) | 84.6 µg/mL (≈ 278 µM) | 76.4 µg/mL (≈ 251 µM) | 75.5 µg/mL (≈ 248 µM) | 56% | 59.2% | 0.5% |  |  |  |  |
| O=C1O[C@H]([C@@H](O)CO)C(O)=C1O [ASCORBIC ACID] |  |  |  |  |  |  | 88.6% | 0.85% |  |  |  |  |
| CC(C)=CCC[C@@H](C)[C@H]1[C@@H](O)[C@@H]2C(C)=CC[C@H]2[C@@](C)(O)C[C@H]1O [DICTYOL C] | inactive | 101 µg/mL (≈ 312 µM) | 111 µg/mL (≈ 343 µM) | 161 µg/mL (≈ 498 µM) | 140 µg/mL (≈ 436 µM) | 18% | 57.7% | 1.1% |  |  |  |  |
| C/C1=C\[C@@H](O)C/C(C)=C/C[C@]2(C)CCC(C(C)C)=C2CC1 [DOLABELLATRIENOL] | inactive | 102 µg/mL (≈ 355 µM) | 101 µg/mL (≈ 349 µM) | 121 µg/mL (≈ 418 µM) | 150 µg/mL (≈ 522 µM) | 15.1% | 24.4% | 5.75% |  |  |  |  |
| O=c1[nH]cc(F)c(=O)[nH]1 [FLUOROURACIL] |  | 8.6 µg/mL (≈ 66.1 µM) | 3.2 µg/mL (≈ 24.6 µM) | 6.5 µg/mL (≈ 50 µM) | 2.3 µg/mL (≈ 17.7 µM) |  |  |  |  |  |  | 99.5% |
| CC(C)=CCCC(C)C1CC/C(C)=C/CCC2COC(O)C21 (configuration not stated) [ISODICTYOHEMIACETAL] | Active | 70.2 µg/mL (≈ 229 µM) | 84.6 µg/mL (≈ 276 µM) | 76.4 µg/mL (≈ 249 µM) | 75.5 µg/mL (≈ 246 µM) | 59.1% | 57.4% | 0.75% |  |  |  |  |
| CC(C)=CCC[C@@H](C)[C@@H]1CC=C(C)[C@@H]2CC=C(C)[C@H]2[C@@H]1O [ISOPACHYDICTYOL A] | Active | 39.2 µg/mL (≈ 136 µM) | 22.4 µg/mL (≈ 77.6 µM) | 28.3 µg/mL (≈ 98.1 µM) | 39.2 µg/mL (≈ 136 µM) | 48.4% | 59.9% | 1.4% |  |  |  |  |
| C=C1CC[C@@H]([C@H](C)CCC=C(C)C)[C@@H](O)[C@@H]2C(C)=CC[C@@H]12 [PACHYDICTYOL A] | Active | 40.2 µg/mL (≈ 139 µM) | 24.6 µg/mL (≈ 85.3 µM) | 27.4 µg/mL (≈ 95 µM) | 37.5 µg/mL (≈ 130 µM) | 42.9% | 50.2% | 2.45% |  |  |  |  |
